{"source": "ChEMBL document CHEMBL1141690", "about": "“New PPARgamma ligands based on barbituric acid: virtual screening, synthesis and receptor binding studies” (Bioorg Med Chem Lett, 2008)", "key": {"[1]": {"target": "T1, Peroxisome proliferator-activated receptor gamma (Mus musculus) (UniProt P37238)", "T1 sequence (whole entry)": "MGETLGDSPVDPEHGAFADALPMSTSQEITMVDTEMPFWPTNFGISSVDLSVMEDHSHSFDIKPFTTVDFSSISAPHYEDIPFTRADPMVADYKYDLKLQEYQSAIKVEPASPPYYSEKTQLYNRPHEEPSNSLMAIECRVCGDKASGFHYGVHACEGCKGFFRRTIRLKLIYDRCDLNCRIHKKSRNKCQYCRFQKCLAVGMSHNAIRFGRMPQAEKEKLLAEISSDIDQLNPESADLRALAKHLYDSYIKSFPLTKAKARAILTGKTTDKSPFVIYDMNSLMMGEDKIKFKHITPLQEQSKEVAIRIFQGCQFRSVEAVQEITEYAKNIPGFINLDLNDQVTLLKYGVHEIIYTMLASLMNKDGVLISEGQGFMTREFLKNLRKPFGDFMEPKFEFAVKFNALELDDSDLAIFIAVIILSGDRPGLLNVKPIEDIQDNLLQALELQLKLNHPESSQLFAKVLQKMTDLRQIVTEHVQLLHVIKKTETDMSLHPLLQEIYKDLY", "experiment": "Displacement of [3H]rosiglitazone from mouse PPARgamma receptor at 10 uM by scintillation proximation assay"}, "[2]": {"target": "T2, Peroxisome proliferator-activated receptor gamma (Mus musculus, UniProt P37238)", "T2 sequence (P37238 whole entry)": "T1 sequence (whole entry)", "experiment": "Displacement of [3H]rosiglitazone from mouse PPARgamma receptor by scintillation proximation assay"}}, "data": [{"smiles": "Cc1ccc(OCCOc2ccc(C=C3C(=O)NC(=O)NC3=O)cc2)cc1", "values": [{"measurement": "inhibition", "setting": "[1]", "value": "< 20", "unit": "%"}]}, {"smiles": "O=C1NC(=O)C(=Cc2ccc(OCCOc3ccc4ccccc4c3)cc2)C(=O)N1", "values": [{"measurement": "inhibition", "setting": "[1]", "value": "< 20", "unit": "%"}]}, {"smiles": "O=C1NC(=O)C(=Cc2ccc(Oc3ccccc3)cc2)C(=O)N1", "values": [{"measurement": "IC50", "setting": "[2]", "value": 100, "unit": "nM"}]}, {"smiles": "O=C1NC(=O)C(=Cc2ccc(OCCn3ccc4cccnc43)cc2)C(=O)N1", "values": [{"measurement": "inhibition", "setting": "[1]", "value": "< 20", "unit": "%"}]}, {"smiles": "O=C1NC(=O)C(=Cc2ccc(OCCOc3ccccn3)cc2)C(=O)N1", "values": [{"measurement": "inhibition", "setting": "[1]", "value": "< 20", "unit": "%"}]}, {"smiles": "O=C1NC(=O)C(=Cc2ccc(OCCn3c4ccccc4c4ccccc43)cc2)C(=O)N1", "values": [{"measurement": "inhibition", "setting": "[1]", "value": "< 20", "unit": "%"}]}, {"smiles": "O=C1NC(=O)C(=Cc2ccc(OCCOc3ccc(Br)cc3)cc2)C(=O)N1", "values": [{"measurement": "inhibition", "setting": "[1]", "value": "< 20", "unit": "%"}]}, {"smiles": "O=C1NC(=O)C(=Cc2ccc(OCCOc3ccc([N+](=O)[O-])cc3)cc2)C(=O)N1", "values": [{"measurement": "IC50", "setting": "[2]", "value": 2500, "unit": "nM"}]}, {"smiles": "N#Cc1ccc(OCCOc2ccc(C=C3C(=O)NC(=O)NC3=O)cc2)cc1", "values": [{"measurement": "IC50", "setting": "[2]", "value": 200, "unit": "nM"}]}, {"smiles": "COc1ccc(OCCOc2ccc(C=C3C(=O)NC(=O)NC3=O)cc2)cc1", "values": [{"measurement": "IC50", "setting": "[2]", "value": 200, "unit": "nM"}]}, {"smiles": "Cc1ccc(OCCOc2cccc(C=C3C(=O)NC(=O)NC3=O)c2)cc1", "values": [{"measurement": "IC50", "setting": "[2]", "value": 800, "unit": "nM"}]}, {"smiles": "N#Cc1ccc(OCCCOc2ccc(C=C3C(=O)NC(=O)NC3=O)cc2)cc1", "values": [{"measurement": "inhibition", "setting": "[1]", "value": "< 20", "unit": "%"}]}, {"smiles": "O=C1NC(=O)C(=Cc2ccc(OCCN3c4ccccc4Oc4ccccc43)cc2)C(=O)N1", "values": [{"measurement": "IC50", "setting": "[2]", "value": 500, "unit": "nM"}]}, {"smiles": "CC(C)c1ccc(OCCCOc2ccc(C=C3C(=O)NC(=O)NC3=O)cc2)cc1", "values": [{"measurement": "inhibition", "setting": "[1]", "value": "< 20", "unit": "%"}]}]}
